Results reported in patent US20220162188A1, “ISOPRENOIDS AND METHODS OF MAKING THEREOF” (NORTH CAROLINA STATE UNIVERSITY, priority 2019, published 2022).
“Also recorded” adds a separate entry of the source.

Assays:
[1] = target: T1, isopentenyl phosphate kinase (IPK) (Thermoplasma acidophilum, UniProt Q9HLX1); assay: NADH-coupled kinetic assay of IPK; conditions: IPK with monophosphorylated substrate, ± SD of the mean
T1 sequence (Q9HLX1 1-245): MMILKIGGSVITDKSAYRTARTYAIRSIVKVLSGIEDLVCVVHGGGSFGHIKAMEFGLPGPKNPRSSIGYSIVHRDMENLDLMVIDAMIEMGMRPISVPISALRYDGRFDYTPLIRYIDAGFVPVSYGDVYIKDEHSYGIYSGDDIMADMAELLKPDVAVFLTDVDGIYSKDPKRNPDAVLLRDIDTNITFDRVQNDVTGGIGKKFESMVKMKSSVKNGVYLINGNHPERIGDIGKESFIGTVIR
Description: The data was fitted to the Michaelis-Menten equation using SigmaPlot, and the kinetic parameters (kcat, Km, kcat/Km) extracted.
NADH-Coupled Kinetic Assays. NADH coupled assays were performed with purified enzymes. Reaction progress was monitored by absorbance at 340 nm at 30° C. in a 96-well plate using a Biotek Synergy 4 plate reader (Winooski, Vt.). 200 μL enzymatic mixtures contained 50 mM Tris (pH 8.0), 25 mM KCl, 2.5 mM MgCl2, 0.05 mM DTT, 1 mM ATP, 320 μM NADH, 400 μM phosphoenolpyruvate, 0.5 U pyruvate kinase, 0.7 U lactate dehydrogenase, and various amounts of substrate. Conditions were verified by doubling enzyme and verifying the initial rate was doubled as well.
Kinetics of IPK were done with purified enzyme using 0.09 μg of enzyme per well. Serial dilution was used to generate specific concentrations of substrates (3125, 1562, 781, 625, 391, 195, 98, 24, 12, and 3 μM). Each condition was performed in triplicate. Nonlinear regression was fitted using SigmaPlot (Systat Software Inc., San Jose, Calif., USA).

[2] = target: IspA, a farnesyl diphosphate synthase (FPPase) (Escherichia coli, UniProt P22939); conditions: wild-type IspA
Chain of IspA, a farnesyl diphosphate synthase (FPPase) (P22939 whole entry): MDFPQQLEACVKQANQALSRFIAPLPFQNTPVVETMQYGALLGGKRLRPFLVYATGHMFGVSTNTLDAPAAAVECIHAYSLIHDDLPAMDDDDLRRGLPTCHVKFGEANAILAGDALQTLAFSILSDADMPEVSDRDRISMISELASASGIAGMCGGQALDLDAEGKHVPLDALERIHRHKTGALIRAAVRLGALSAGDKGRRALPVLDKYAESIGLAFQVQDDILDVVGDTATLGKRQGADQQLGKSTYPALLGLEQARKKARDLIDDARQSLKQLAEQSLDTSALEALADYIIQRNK

[3] = target: IspA Y80D (Escherichia coli, UniProt P22939, Y79D); format: biochemical; conditions: DMAPP as starter unit
Chain of IspA Y80D (P22939 whole entry Y79D): as the sequence (P22939 whole entry) above, with Y79D counted along it

[4] = target: IspA S81F (Escherichia coli, UniProt P22939, S80F); format: biochemical; conditions: DMAPP as starter unit
Chain of IspA S81F (P22939 whole entry S80F): as the sequence (P22939 whole entry) above, with S80F counted along it

For CCC/C=C/COP(=O)(O)O [Substrate 29], the kcat [1] was 43.0 ± 17.8 s⁻¹, the Km ([1]; 1 mM ATP, 30° C.) was 6.83 ± 3.77 mM and the “use as extender unit in place of IPP (GPP analogue by LC-MS), words” value ([2]; DMAPP as starter unit) was “accepted by IspA; also recorded: most efficient analogues”. The “use as extender unit in place of IPP (FPP analogue by LC-MS), words” value ([2]; GPP as starter unit) was “almost as good as that with IPP; also recorded: accepted by IspA”, the “use as extender unit in place of IPP (conversion by LC-MS), words” value [3] was “most efficient analogues” and the “use as extender unit in place of IPP (conversion by LC-MS), words” value [4] was “most efficient analogues”.
